Reference: patent publication US5216005A, “Immunosuppressive analogues and derivatives of succinylacetone” (priority 1990, dated 1993)

Tests used:
[1] = test system: adjuvant induced arthritis; experiment: adjuvant induced arthritis in rats, overall arthritis score; intraarticular right paw, per kg: succinylacetone 325 μg, methyl ester 150 μg, 4-acetyl-5-oxohexanoate 560 μg; type: in vivo, rat
human lymphocytes [2] = experiment: phytohemagglutinin (PHA) stimulation assay, tritiated thymidine uptake; type: cell-based
Method: A second assay widely used to study immune responsiveness is mitogenic stimulation of thymocytes with antigenic substances of plant origin. The most widely used plant molecule is phytohemagglutinin (PHA).
The procedure for carrying out the phytohaemagglutinin assay is also well known to those skilled in the art. Briefly, it consists of isolating human lymphocytes as described above, and incubating about 1.0×10^6 cells per ml in a suitable physiological solution with phytohaemagglutinin, and the appropriate concentration of succinylacetone-proline-NH-PEG. Tritiated thymidine is added 48 hours later and allowed to incubate for twenty-four hours before the cells are counted.

human lymphocytes [3] = experiment: tritiated thymidine uptake in primary mixed lymphocyte reaction; type: cell-based; details: for incorporation of tritiated thymidine: Table IV
From the text: The in vitro mixed lymphocyte assay described below is presently employed in the clinical setting as an indicator of histocompatibility, and is premised on the transformation of resting genetically dissimilar lymphocytes into cells which synthesize DNA and undergo proliferation.
The mixed lymphocyte reaction assay can be carried out by techniques well known to those skilled in the art. L. Hudson and F. C. Huy, Practical Immunology, p. 260, Blackwell Scientific Publications (1976). Briefly this consists of isolating lymphocytes from human peripheral blood by standard density gradient centrifugation techniques from two separate individuals. Approximately 2×10^5 lymphocytes of each individual are combined to yield a total of 4×10^5 lymphocytes per culture. All procedures are carried out under sterile conditions, and the lymphocytes are isolated and kept in physiologically compatible solutions. To the mixture of lymphocytes is added a desired amount of an appropriate succinylacetone derivative, and after different times an aliquot of the mixture is removed and assayed for IL-2 or IFN-γ, or ^3 H-T is measured.
As mentioned above, one measure of an immune response as reflected in a mixed lymphocyte assay is the stimulation of DNA synthesis, and a concomitant increase in cell number. Thus, to further ascertain the immunosuppressive activity of succinylacetonyl-proline-NH-PEG, its effect on inhibition of thymocyte growth, as detected by uptake of tritiated thymidine, was assayed.

human lymphoid cells = experiment: tritiated thymidine uptake in secondary mixed lymphocyte reaction; type: cell-based; details: 2°-MLR; for inhibition at 740 µM / inhibition at 2200 µM / inhibition at 6700 µM / inhibition at 20000 µM: Homo sapiens, Lymphocyte
Method: In addition to testing the immunosuppressive activities of succinylacetone derivatives in a primary mixed lymphocyte reaction, or a phytohemagglutinin stimulation assay, two of the derivatives, succinylacetone methyl ester and methyl 4-acetyl-5-oxohexanoate, were tested in a secondary mixed lymphocyte reaction assay. The secondary mixed lymphocyte assays differs from the primary mixed lymphocyte reaction assays in that they employ many more primed responder cells that are responsive to the primary stimulating cells. The presence of such responsive cells is a reflection of immunological memory in an ongoing immunological response. […] These cells are then used in the secondary mixed lymphocyte reaction. It is worth noting that because a secondary mixed lymphocyte reaction is greatly enriched for responsive cells, fewer cells can be used in the secondary assay.
It will be appreciated that described therein is a method for carrying out secondary lymphocyte reactions using mouse cells, however such methods are generally applicable to performing secondary mixed lymphocyte reactions using human cells with modifications that are well known to those skilled in the art. […] The assays were conducted in duplicate involving lymphoid cells isolated from two individuals.

For `COC(=O)CCC(C(C)=O)C(C)=O` [Methyl 4-Acetyl-5-Oxohexanoate, methyl 4-acetyl-5-oxohexanoate], the overall arthritis score ([1]; Exp. I (treated from same day), day 14) was 3.2 ± 2.2, the overall arthritis score ([1]; Exp. I (treated from same day), day 16) was 3.4 ± 2.2 and the overall arthritis score ([1]; Exp. I (treated from same day), day 18) was 5.0 ± 3.2. It also gave an overall arthritis score ([1]; Exp. I (treated from same day), day 20) of 7.0 ± 4.0, an overall arthritis score ([1]; Exp. I (treated from same day), day 22) of 8.2 ± 4.9 and an overall arthritis score ([1]; Exp. I (treated from same day), day 24) of 7.2 ± 4.2. For the same compound, the overall arthritis score ([1]; Exp. I (treated from same day), day 26) was 7.2 ± 4.2, the overall arthritis score ([1]; Exp. II (treated from day 4), day 14) was 1.0 ± 1.4 and the overall arthritis score ([1]; Exp. II (treated from day 4), day 16) was 2.2 ± 2.5. For the same compound, the overall arthritis score ([1]; Exp. II (treated from day 4), day 18) was 1.8 ± 1.8, the overall arthritis score ([1]; Exp. II (treated from day 4), day 20) was 2.2 ± 2.0 and the overall arthritis score ([1]; Exp. II (treated from day 4), day 22) was 5.0 ± 3.5. It also gave an overall arthritis score ([1]; Exp. II (treated from day 4), day 24) of 3.4 ± 3.6, an overall arthritis score ([1]; Exp. II (treated from day 4), day 26) of 4.0 ± 3.7 and an overall arthritis score ([1]; Exp. III (treated from day 14), day 14) of 2.0 ± 2.0. It also gave an overall arthritis score ([1]; Exp. III (treated from day 14), day 16) of 2.4 ± 1.5, an overall arthritis score ([1]; Exp. III (treated from day 14), day 18) of 3.4 ± 2.6 and an overall arthritis score ([1]; Exp. III (treated from day 14), day 20) of 5.6 ± 2.7. It also gave an overall arthritis score ([1]; Exp. III (treated from day 14), day 22) of 7.4 ± 4.8, an overall arthritis score ([1]; Exp. III (treated from day 14), day 24) of 7.4 ± 5.3 and an overall arthritis score ([1]; Exp. III (treated from day 14), day 26) of 7.4 ± 5.3. For the same compound, the effect on arthritis ([1]; comparison of treatment schedules, in words) was “apparently most active when administered every other day from day 4 to day 24”, the IC50 (human lymphocytes [2]; Homo sapiens, Lymphocyte, both assays (two individuals), read-out: concentration causing about 50% inhibition in PHA stimulation) was ~309 µM and the “PHA stimulation, cpm ± SD” value (human lymphocytes [2]; first experiment, 3.8 μM) was 19888 cpm. For the same compound, the “PHA stimulation, cpm ± SD” value (human lymphocytes [2]; first experiment, 11 μM) was 19401 cpm, the “PHA stimulation, cpm ± SD” value (human lymphocytes [2]; first experiment, 34 μM) was 19399 cpm and the “PHA stimulation, cpm ± SD” value (human lymphocytes [2]; first experiment, 103 μM) was 18677 cpm. For the same compound, the “PHA stimulation, cpm ± SD” value (human lymphocytes [2]; first experiment, 309 μM) was 14098 cpm, the “PHA stimulation, cpm ± SD” value (human lymphocytes [2]; first experiment, 926 μM) was 2776 cpm and the “PHA stimulation, cpm ± SD” value (human lymphocytes [2]; first experiment, 2.8 mM) was 116 cpm. For the same compound, the “PHA stimulation, cpm ± SD” value (human lymphocytes [2]; first experiment, 25 mM) was 200 cpm, the “PHA stimulation, cpm ± SD” value (human lymphocytes [2]; first experiment, 83 mM) was 192 cpm and the “PHA stimulation, cpm ± SD” value (human lymphocytes [2]; second experiment, 3.8 μM) was 33799 cpm. The “PHA stimulation, cpm ± SD” value (human lymphocytes [2]; second experiment, 11 μM) was 33417 cpm, the “PHA stimulation, cpm ± SD” value (human lymphocytes [2]; second experiment, 34 μM) was 34006 cpm and the “PHA stimulation, cpm ± SD” value (human lymphocytes [2]; second experiment, 103 μM) was 30569 cpm. The “PHA stimulation, cpm ± SD” value (human lymphocytes [2]; second experiment, 309 μM) was 19713 cpm, the “PHA stimulation, cpm ± SD” value (human lymphocytes [2]; second experiment, 926 μM) was 5600 cpm and the “PHA stimulation, cpm ± SD” value (human lymphocytes [2]; second experiment, 2.8 mM) was 717 cpm. The “PHA stimulation, cpm ± SD” value (human lymphocytes [2]; second experiment, 25 mM) was 200 cpm, the “PHA stimulation, cpm ± SD” value (human lymphocytes [2]; second experiment, 83 mM) was 156 cpm and the IC50 (human lymphocytes [3]; Homo sapiens, Lymphocyte, primary MLR, read-out: concentration causing 50% inhibition in thymidine uptake) was ~2200 µM. The “incorporation of tritiated thymidine” value (human lymphocytes [3]; Exp I, 3 μM) was 74259, the “incorporation of tritiated thymidine” value (human lymphocytes [3]; Exp I, 9 μM) was 77627 and the “incorporation of tritiated thymidine” value (human lymphocytes [3]; Exp I, 27 μM) was 77634. The “incorporation of tritiated thymidine” value (human lymphocytes [3]; Exp I, 81 μM) was 81881, the “incorporation of tritiated thymidine” value (human lymphocytes [3]; Exp I, 244 μM) was 48284 and the “incorporation of tritiated thymidine” value (human lymphocytes [3]; Exp I, 733 μM) was 67787. The “incorporation of tritiated thymidine” value (human lymphocytes [3]; Exp I, 2.2 mM) was 29389, the “incorporation of tritiated thymidine” value (human lymphocytes [3]; Exp I, 6.7 mM) was 135 and the “incorporation of tritiated thymidine” value (human lymphocytes [3]; Exp I, 20 mM) was 163. For the same compound, the “incorporation of tritiated thymidine” value (human lymphocytes [3]; Exp II, 3 μM) was 114713, the “incorporation of tritiated thymidine” value (human lymphocytes [3]; Exp II, 9 μM) was 117109 and the “incorporation of tritiated thymidine” value (human lymphocytes [3]; Exp II, 27 μM) was 112463. For the same compound, the “incorporation of tritiated thymidine” value (human lymphocytes [3]; Exp II, 81 μM) was 113054, the “incorporation of tritiated thymidine” value (human lymphocytes [3]; Exp II, 244 μM) was 122672 and the “incorporation of tritiated thymidine” value (human lymphocytes [3]; Exp II, 733 μM) was 113732. For the same compound, the “incorporation of tritiated thymidine” value (human lymphocytes [3]; Exp II, 2.2 mM) was 84363, the “incorporation of tritiated thymidine” value (human lymphocytes [3]; Exp II, 6.7 mM) was 21280 and the “incorporation of tritiated thymidine” value (human lymphocytes [3]; Exp II, 20 mM) was 109. For the same compound, the CPM (human lymphoid cells; Exp I, 247 μM) was 73805 CPM, the CPM (human lymphoid cells; Exp I, 740 μM) was 61568 CPM and the CPM (human lymphoid cells; Exp I, 2.2 mM) was 1995 CPM. For the same compound, the CPM (human lymphoid cells; Exp I, 6.7 mM) was 112 CPM, the CPM (human lymphoid cells; Exp I, 20 mM) was 76 CPM and the CPM (human lymphoid cells; Exp II, 247 μM) was 86893 CPM. The CPM (human lymphoid cells; Exp II, 740 μM) was 88958 CPM, the CPM (human lymphoid cells; Exp II, 2.2 mM) was 43264 CPM and the CPM (human lymphoid cells; Exp II, 6.7 mM) was 4402 CPM. For the same compound, the CPM (human lymphoid cells; Exp II, 20 mM) was 134 CPM, the inhibition at 740 µM (human lymphoid cells; Exp I, 740 μM) was 23.6% and the inhibition at 2200 µM (human lymphoid cells; Exp I, 2.2 mM) was 97.5%. It also gave an inhibition at 6700 µM (human lymphoid cells; Exp I, 6.7 mM) of 9.99%, an inhibition at 20000 µM (human lymphoid cells; Exp I, 20 mM) of 9.99% and an inhibition at 740 µM (human lymphoid cells; Exp II, 740 μM) of 4.8%. The inhibition at 2200 µM (human lymphoid cells; Exp II, 2.2 mM) was 53.7%, the inhibition at 6700 µM (human lymphoid cells; Exp II, 6.7 mM) was 95.3% and the inhibition at 20000 µM (human lymphoid cells; Exp II, 20 mM) was 9.99%.
